Test results as given in patent publication US5252322A, “Skin tanning compositions containing imidazoles” (The Gillette Company, priority 1992, dated 1993).

Columns and labels:
tyrosinase [1] = assay: Tyrosinase activity screening in S91 melanoma cell line; assay type: cell-based
Description: (§1) A screening test is employed to select compounds in vitro before in vivo testing. The better compounds are found to stimulate higher levels of tyrosinase activity in cell cultures. Often the increase in tyrosinase activity is accompanied by a small decrease in cell number.
(§2) To obtain more rapid results, the tests can be run with a melanoma cell line such as Cloudman S91 melanoma cells. However, if desired, normal human melanocytes (NHM) can also be employed. The compounds to be tested are added as aqueous solutions to the cell culture medium. After four days, the cells are harvested and counted, and a tyrosinase activity assay and a total protein determination are run on cell pellets.

tyrosinase [2] = assay: Tyrosinase activity screening in normal human melanocytes (NHM); assay type: cell-based; settings: NHM, 0.5, 10 and 50 mM
Description: as §1, §2

tyrosinase [3] = assay: Tyrosinase activity assay of cell cultures stimulated with imidazole (cell line not stated); assay type: cell-based; settings: four days, control (0 mM) 111.9
Description: as §1, §2
Dose-response curves from tyrosinase assays of cells stimulated with imidazole have slopes of about 1.1.

[4] = test system: pigmented guinea pig skin; assay: In vivo tanning test on pigmented guinea pig skin
Description: To confirm the results of in vitro testing, in vivo testing was conducted on pigmented guinea pig skin. Five animals were used in each of the treatment or control groups.
1. Animals were clipped in a suitably pigmented area over the back or flank and chemically depilated prior to the first treatments. The area was at least 4 cm^2. The treatment site was 3 cm^2 and was carefully marked. Photographs of areas to be treated were taken prior to initial treatments. Animals were clipped as needed throughout the study, depilation was only done prior to evaluations.
2. Concentrations of imidazole of 0.1, 0.5, 1.0 and 2.0M were applied as a liquid in 50% EtOH. 100 μL volumes were applied via pipette and glass rod with minimal rubbing of the skin.
3. Treatments were made daily, 5 days per week for 3 weeks. Visual observations and photographic records were made at the study midpoint and 24 hours after the last treatment. Animals were clipped and depilated prior to these evaluations.
4. The animals were monitored for two weeks following the last treatment. At the end of the fifth week, animals were photographed.

For `O=Cc1ncc[nH]1` [2-imidazolecarboxaldehyde], the “tyrosinase activity versus control” value (tyrosinase [1]; at 0.5 mM (tested 0.1, 0.25, 0.5 mM)) was “elevated” and the “tyrosinase activity versus control” value (tyrosinase [1]; at 0.1 and 0.25 mM) was “decreased activity”.
`O=C1NCCN1` [2-imidazolidone] was tested, and the “tyrosinase activity versus control” value (tyrosinase [1]; at 50 mM (tested 0.5, 10, 50 mM)) was “slight increase” and the “tyrosinase activity versus control” value (tyrosinase [2]) was “moderate inhibition”.
For `OCc1c[nH]cn1` [4-(hydroxymethyl)imidazole], the “tyrosinase activity versus control” value (tyrosinase [1]; at 0.25 and 0.5 mM (tested 0.1, 0.25, 0.5 mM)) was “slightly increased”.
`O=C(O)Cc1c[nH]cn1` [4-imidazoleacetic acid] was tested, and the “tyrosinase activity versus control” value (tyrosinase [1]; 0.5 and 10 mM, may be due to acidic pH of test solutions) was “dose dependent decrease”.
`N[C@@H](Cc1c[nH]cn1)C(=O)O` [L-histidine monochloride monohydrate] was tested, and the “tyrosinase activity versus control” value (tyrosinase [1]; at 0.5 mM (tested 0.5 and 10 mM)) was “increased tyrosinase activity”.
`c1c[nH]cn1` [imidazole] was tested, and the “tyrosinase activity, DPM/1000 cells” value (tyrosinase [3]; 0.5 mM) was 210.7 DPM/1000 cells, the “tyrosinase activity, DPM/1000 cells” value (tyrosinase [3]; 1.0 mM) was 263.2 DPM/1000 cells and the “tyrosinase activity, DPM/1000 cells” value (tyrosinase [3]; 5.0 mM) was 329.2 DPM/1000 cells. For the same compound, the “tyrosinase activity, DPM/1000 cells” value (tyrosinase [3]; 10.0 mM) was 516.1 DPM/1000 cells, the “visual observation of treated sites (darkening)” value ([4]; 0.1, 0.5, 1.0 and 2.0M in 50% EtOH, topical 100 μL daily, 5 days per week for 3 weeks) was “darkening for all areas” and the skin irritation ([4]; 2.0M solution in 50% EtOH, topical) was “appeared to mildly irritate the skin of some of the animals”. The “visual observation of treated sites (degree of tanning)” value ([4]; at 0.5 to 1.0M in 50% EtOH, topical, 3 weeks) was “most tanning”, the “course of darkening over time” value ([4]; daily topical treatments for 3 weeks) was “continued to increase through the third week” and the “number of treatments after which darkening was observed” value ([4]; daily topical treatments, 5 days per week) was 5-10 treatments.
